Measurements from ChEMBL document CHEMBL1155510, “Scaffold rearrangement of dihydroxypyrimidine inhibitors of HIV integrase: Docking model revisited” (Bioorg Med Chem Lett, 2010).

Key:
[1] = Inhibition of HIV integrase 3'-end processing reaction; parameters: species or system Human immunodeficiency virus
[2] = Inhibition of HIV integrase strand transfer activity; parameters: species or system Human immunodeficiency virus

SMILES | IC50 [1] [µM] | IC50 [2] [µM]
CNC(=O)c1nc(Cc2ccc(F)cc2)[nH]c(=O)c1O | > 333 | 169
CNC(=O)c1nc(C)n(Cc2ccc(F)cc2)c(=O)c1O | > 333 | 111
CN(C)CCCNC(=O)c1nc(Cc2ccc(F)cc2)[nH]c(=O)c1O | > 333 | > 333
O=C(O)c1nc(Cc2ccc(F)cc2)[nH]c(=O)c1O | > 333 | 243
CNC(=O)c1nc(Cc2ccc(F)cc2)n(C)c(=O)c1O | > 333 | 241
COCCNC(=O)c1nc(Cc2ccc(F)cc2)[nH]c(=O)c1O | > 333 | 206
